Test results reported in paper PMC7163398 (ACS infectious diseases, 2017).

System: 17S resistant S. aureus USA300 strains
Experiment: Susceptibility of 17S resistant strains
Format: cell-based, Staphylococcus aureus
Settings: 17S resistant S. aureus USA300 strains tested against 1S

## humimycin A [1S]
  cross-resistance of 17S resistant strains: cross-resistance
